Laboratory results published in PMC8876135, “The Catestatin-Derived Peptides Are New Actors to Fight the Development of Oral Candidosis” (International Journal of Molecular Sciences, 2022).
≈ marks a conversion by molar mass, not a printed value. Read-outs that look alike come from different tables or passages of the source.

Experiments:
Assay in all cases: Susceptibility of Candida strains to antifungal drugs
Format in all cases: cell-based
Set-up in all cases: key to Susceptibility category: S: susceptible standard dosing regimen; R: resistant, therapeutic failure with increased exposure; I: susceptible increased exposure
C. lusitaniae “S” = conditions: strain C. lusitaniae “S”; for Susceptibility category: EUCAST breakpoints (CLSI for Caspofungin)
C. tropicalis “S” = conditions: strain C. tropicalis “S”; for Susceptibility category: EUCAST breakpoints (CLSI for Caspofungin)
Protocol: (§1) Strains of Candida albicans, Candida tropicalis and Candida glabrata, frequently found in cases of oral candidosis, were tested for L-bCtl and D-bCtl antimicrobial activity. The sensitive strain of C. albicans (ATCC 10231^TM) was provided by ATCC (Manassas, VA, USA). The resistant strain of C. albicans, the sensitive and resistant strains of C. tropicalis as well as the sensitive and resistant strains of C. glabrata were kindly provided by Dr Valérie Letscher-Bru (Laboratory of Parasitolology and Medical Mycology, Strasbourg, France).

C. glabrata “S” = conditions: strain C. glabrata “S”; for Susceptibility category: EUCAST breakpoints (CLSI for Caspofungin)
Protocol: as §1

C. albicans “S” = conditions: strain C. albicans “S”; for Susceptibility category: EUCAST breakpoints (CLSI for Caspofungin)
Protocol: as §1

C. glabrata “R” = conditions: strain C. glabrata “R”; for Susceptibility category: EUCAST breakpoints (CLSI for Caspofungin)
Protocol: as §1

C. albicans “R” = conditions: strain C. albicans “R”; for Susceptibility category: EUCAST breakpoints (CLSI for Caspofungin)
Protocol: as §1

C. tropicalis “R” = conditions: strain C. tropicalis “R”; for Susceptibility category: EUCAST breakpoints (CLSI for Caspofungin)
Protocol: as §1

[1] = Clavispora lusitaniae, read-out: MIC
[2] = Candida tropicalis, read-out: MIC
[3] = Nakaseomyces glabratus, read-out: MIC
[4] = Candida albicans, read-out: MIC

MIC (C. lusitaniae “S”; [1]) | MIC (C. tropicalis “S”; [2]) | MIC (C. glabrata “S”; [3]) | MIC (C. albicans “S”; [4]) | MIC (C. glabrata “R”; [3]) | MIC (C. albicans “R”; [4]) | MIC (C. tropicalis “R”; [2]) | Compound | Susceptibility category (C. lusitaniae “S”) | Susceptibility category (C. tropicalis “S”) | Susceptibility category (C. glabrata “S”) | Susceptibility category (C. albicans “S”) | Susceptibility category (C. glabrata “R”) | Susceptibility category (C. albicans “R”) | Susceptibility category (C. tropicalis “R”) | also measured
0.75 mg/L (≈ 0.812 µM) | 0.125 mg/L (≈ 0.135 µM) | 0.125 mg/L (≈ 0.135 µM) | 0.19 mg/L (≈ 0.206 µM) | 0.5 mg/L (≈ 0.541 µM) | 0.125 mg/L (≈ 0.135 µM) | 0.125 mg/L (≈ 0.135 µM) | C[C@@H]1[C@H](O)[C@@H](C)/C=C/C=C/C=C/C=C/C=C/C=C/C=C/[C@H](O[C@@H]2O[C@H](C)[C@@H](O)[C@H](N)[C@@H]2O)C[C@@H]2O[C@](O)(C[C@@H](O)C[C@@H](O)[C@H](O)CC[C@@H](O)C[C@@H](O)CC(=O)O[C@H]1C)C[C@H](O)[C@H]2C(=O)O [Amphotericin B] | S | S | S | S | S | S | S | –
0.012 mg/L (≈ 0.0344 µM) | 0.047 mg/L (≈ 0.135 µM) | 0.032 mg/L (≈ 0.0916 µM) | 0.002 mg/L (≈ 0.00573 µM) | 8 mg/L (≈ 22.9 µM) | > 32 mg/L | 1.5 mg/L (≈ 4.29 µM) | C[C@@H](c1ncncc1F)[C@](O)(Cn1cncn1)c1ccc(F)cc1F [Voriconazole] | S | S | S | S | R | R | R | –
– | – | – | – | – | – | – | Caspofungin | S | S | I | S | I | S | S | MIC (C. lusitaniae “S”): 0.125 mg/L; MIC (C. tropicalis “S”): 0.125 mg/L; MIC (C. glabrata “S”): 0.25 mg/L; MIC (C. albicans “S”): 0.094 mg/L; MIC (C. glabrata “R”): 0.25 mg/L; MIC (C. albicans “R”): 0.047 mg/L; MIC (C. tropicalis “R”): 0.125 mg/L
0.38 mg/L (≈ 1.24 µM) | 0.5 mg/L (≈ 1.63 µM) | 3 mg/L (≈ 9.8 µM) | 0.125 mg/L (≈ 0.408 µM) | > 256 mg/L | > 256 mg/L | 96 mg/L (≈ 313 µM) | OC(Cn1cncn1)(Cn1cncn1)c1ccc(F)cc1F [Fluconazole] | S | S | I | S | R | R | R | –
